# Data reported in patent US11214540B2, “Compositions for treating neurodegenerative diseases” (COGNITION THERAPEUTICS, INC., priority 2017, dated 2022).
# pEC50, pIC50: −log10 of the molar value. Read-outs that look alike come from different tables or passages of the source.
# Tests used:
# potassium channel hERG = potassium channel hERG (Homo sapiens (Human), UniProt Q12809); assay: In vitro testing for hERG inhibition; format: biochemical; details: in vitro toxicity potassium channel hERG
# Protocol: In vitro testing for hERG inhibition was performed in a standard assay (See: Haverkamp W, Breithardt G, Carnm A J, Janse M J, Rosen M R, Antzelevitch C, Escande D, Franz M, Malik M, Moss A and Shah R. (2000) Eur Heat J 21 (15); 1216-31).
# log P = format: physicochemical
# Text: The term “log P” refers to the partition coefficient of a compound. The partition coefficient is the ratio of concentrations of un-ionized compound in each of two solution phases, for example, octanol and water. To measure the partition coefficient of ionizable solute compounds, the pH of the aqueous phase is adjusted such that the predominant form of the compound is un-ionized. The logarithm of the ratio of concentrations of the un-ionized solute compound in the solvents is called log P. The log P is a measure of lipophilicity. For example, log Poct/wat=log([solute]octanol/[solute]un-ionized,water).
# Combined Results for particular compounds described herein, with respect to log P, membrane trafficking (uM), sigma-2 receptor affinity, sigma-1 receptor affinity microsomal stability in mouse liver microsomes (MLM) (t1/2, min), t1/2 normalized to CT)10914 and in vitro toxicity potassium channel hERG (IC50, nM) are provided in Table 1: […]
# [1] = tested on: Abeta oligomer-induced membrane trafficking deficits in primary hippocampal neurons; assay: Membrane Trafficking/Exocytosis (MTT) assay, Abeta oligomer effect on neurons; format: cell-based, rat; details: membrane trafficking, read-out: EC50 Abeta;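 note: compound potency for inhibiting the Abeta oligomer effect on exocytosis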
# Protocol: Compounds according to any embodiment described herein, were tested for their ability to inhibit an amyloid beta effect on the cells. The compounds generally were able to inhibit the amyloid beta effect as measured by a membrane trafficking/exocytosis assay (MTT assay). The rationale for this assay was as follows:
# The present exocytosis assay was adapted for use with mature primary neuronal cultures grown for 3 weeks in vitro. See WO 2011/106785, which is incorporated herein by reference in its entirety. Abeta oligomers cause a dose-dependent decrease in the amount of intracellular vesicles (puncta) filled with reduced purple formazan as measured via image processing using a Cellomics VTI automated microscopy system. […] Increasing the amount of Abeta oligomers eventually results in overt toxicity. Thus, the concentration of neuroactive Abeta oligomers used in the assay is much lower than that causing cell death. […] When configured in this manner, the assay is able to detect compounds that inhibit nonlethal effects of Abeta oligomer whether these compounds act via disruption of oligomers, inhibition of oligomer binding to neurons, or counteraction of signal transduction mechanisms of action initiated by oligomer binding.
# Primary hippocampal neurons from E18 Sprague-Dawley rat embryos were plated at optimized concentrations in 384 well plates in NB media (Invitrogen). Neurons were maintained in cultures for 3 weeks, with twice weekly feeding of NB media with N2 supplement (Invitrogen).
# A test compound was added to cells at concentrations ranging from 100 uM to 0.001 nM followed by addition of vehicle or Abeta oligomer preparations (3 μM total Abeta protein concentration), and incubated for 1 to 24 hr at 37° C. in 5% CO2. MTT reagent (3-(4,5-dimethylthizaol-2yl)-2,5diphenyl tetrazolium bromide) (Roche Molecular Biochemicals) was reconstituted in phosphate buffered saline to 5 mg/mL. 10 μL of MTT labeling reagent is added to each well and incubated at 37° C. for 1 h, then imaged. Exocytosis was assessed by automated microscopy and image processing to quantify the amount of endocytosed and exocytosed formazan.
# Each assay plate was formatted so that compounds are tested with and without Abeta oligomer on each plate. This design eliminates toxic or metabolically active compounds early on in the screening cascade (at the level of the primary screen). Reduced formazan was first visible in intracellular vesicles. Eventual formazan exocytosis was accelerated via Abeta oligomers.
# Human amyloid peptide 1-42 was obtained from a number of commercial vendors such as California Peptide, with lot-choice contingent upon quality control analysis. Quality controls of oligomer preparations consist of Westerns to determine oligomer size ranges and relative concentrations, and the MTT assay to confirm exocytosis acceleration without toxicity. Toxicity was monitored in each image-based assay via quantification of nuclear morphology visualized with the DNA binding blue dye DAPI (Invitrogen). Nuclei that are fragmented are considered to be in late stage apoptosis (Majno and Joris '95) and the test would be rejected. Peptide lots producing unusual peptide size ranges or significant toxicity at a standard 1.5 μM concentration on neurons would also be rejected.
# Data handling and analysis were accomplished by Cellomics VTI image analysis software and STORE automated database software. Because of the low dynamic range and neuronal well-to-well variability after three weeks in culture, statistical comparisons are made via pairwise Tukey-Kramer analysis to determine the significance of the separation between compound+Abeta oligomers from Abeta alone, and between compound alone from vehicle. The ability of mature primary neurons to more closely approximate the electrophysiologically mediated signal transduction network of the adult brain justifies this screening strategy. […]
# potassium channel hERG, sequence (Q12809 whole entry): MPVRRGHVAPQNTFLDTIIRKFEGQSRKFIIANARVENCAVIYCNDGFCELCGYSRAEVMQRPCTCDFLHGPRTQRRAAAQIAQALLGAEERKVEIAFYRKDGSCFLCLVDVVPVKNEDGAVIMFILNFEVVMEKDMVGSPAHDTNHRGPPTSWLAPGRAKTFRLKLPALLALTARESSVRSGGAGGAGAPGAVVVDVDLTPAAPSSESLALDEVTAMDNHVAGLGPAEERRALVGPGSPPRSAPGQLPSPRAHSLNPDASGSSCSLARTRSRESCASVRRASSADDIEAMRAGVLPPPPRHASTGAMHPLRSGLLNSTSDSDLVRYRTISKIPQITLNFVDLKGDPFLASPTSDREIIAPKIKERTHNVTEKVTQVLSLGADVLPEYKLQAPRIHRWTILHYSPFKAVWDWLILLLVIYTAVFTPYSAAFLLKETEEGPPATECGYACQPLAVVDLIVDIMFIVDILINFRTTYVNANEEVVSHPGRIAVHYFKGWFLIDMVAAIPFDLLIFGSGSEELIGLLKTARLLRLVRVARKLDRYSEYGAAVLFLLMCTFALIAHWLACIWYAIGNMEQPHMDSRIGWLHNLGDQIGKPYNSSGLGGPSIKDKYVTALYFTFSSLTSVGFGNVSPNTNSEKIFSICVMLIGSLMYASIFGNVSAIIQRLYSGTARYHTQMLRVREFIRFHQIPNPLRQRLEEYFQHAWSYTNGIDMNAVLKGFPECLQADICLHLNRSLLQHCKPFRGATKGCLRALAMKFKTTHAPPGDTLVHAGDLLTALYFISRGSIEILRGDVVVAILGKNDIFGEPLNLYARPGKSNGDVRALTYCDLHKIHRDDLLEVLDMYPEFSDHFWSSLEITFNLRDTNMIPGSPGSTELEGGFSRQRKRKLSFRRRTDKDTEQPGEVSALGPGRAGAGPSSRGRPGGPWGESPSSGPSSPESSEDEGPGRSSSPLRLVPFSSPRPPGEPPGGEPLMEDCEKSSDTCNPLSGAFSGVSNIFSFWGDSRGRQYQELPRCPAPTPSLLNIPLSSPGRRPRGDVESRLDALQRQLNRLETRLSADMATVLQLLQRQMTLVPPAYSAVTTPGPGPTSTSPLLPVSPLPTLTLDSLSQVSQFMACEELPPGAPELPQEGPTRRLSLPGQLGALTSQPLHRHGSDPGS
SMILES,log P (log P),logP (log P; octanol/water),pIC50 (potassium channel hERG),pEC50 [1],"pEC50 ([1]; Rattus norvegicus, Hippocampal neuron)"
CC(C)=CC(CC(C)(C)c1ccc(N2CCOCC2)cc1)N1CCC(CCO)CC1 (stereo not drawn) [Compound 144],4.69,,,4.70,
CC(C)=CC(CC(C)(C)c1ccc(Cl)cc1)N1CCC(Oc2ccccc2)CC1 (stereo not drawn) [Compound 132],6.91,,,4.70,
COc1ccc(C(C)(C)CC(NCC2CCOCC2)c2ccccc2)cc1 (stereo not drawn) [Compound 115],4.9,,,4.70,
CC(C)=CC(CC(C)(C)c1ccc(N2CCOCC2)cc1)N1CCC(C(F)(F)F)CC1 (stereo not drawn) [Compound 143],5.96,,,4.70,
CC(C)=CC(CC(C)(C)c1ccc(Cl)cc1)N1CCC(c2ccnc(N(C)C)c2)CC1 (stereo not drawn) [Compound 90],7.02,,,4.70,
CC(C)=CC(CCc1ccc(F)cc1)N1CCOCC1 (stereo not drawn) [Compound 91],3.99,,,4.70,
CC(C)=CC(CC(C)(C)c1ccc(F)cc1)N1CCC(N2CCCC2)CC1 (stereo not drawn) [Compound 125],5.23,,,6.60,
CC(C)=CC(CC(C)(C)c1ccc(Cl)cc1)N1CCC(C(C)C)CC1 (stereo not drawn) [Compound 87],7.13,,,4.70,
COCCCC1CCN(C(C=C(C)C)CC(C)(C)c2ccc(N3CCOCC3)cc2)CC1 (stereo not drawn) [Compound 140],5.78,,,4.70,
COc1ccc(C(C)(C)CC(C=C(C)C)N2CCC(C(C)C)CC2)cc1 (stereo not drawn) [Compound 86],6.37,,,6.66,
COC1CCN(C(C=C(C)C)CC(C)(C)c2ccc(Cl)cc2)CC1 (stereo not drawn) [Compound 142],5.22,,,4.70,
CC(C)=CC(CC(C)(C)c1ccc(Cl)cc1)N1CCC(N2CCCC2)CC1 (stereo not drawn) [Compound 135],5.69,,,4.70,
CC(C)=CC(CC(C)(C)c1ccc(C(F)(F)F)cc1)N1CCC(Oc2ccccc2)CC1 (stereo not drawn) [Compound 128],7.19,,,4.70,
CC(C)=CC(CC(C)(C)c1ccc(C(F)(F)F)cc1)N1CCC(N2CCOCC2)CC1 (stereo not drawn) [Compound 137],5.34,,,6.82,
COC1CCN(C(C=C(C)C)CC(C)(C)c2ccc(F)cc2)CC1 (stereo not drawn) [Compound 145],4.76,,,4.70,
CC(C)=CC(CC(C)(C)c1ccc(Cl)cc1)N1CCC(C(F)(F)F)CC1 (stereo not drawn) [Compound 123],6.67,,,6.52,
CC(C)=CC(CCc1ccc(F)cc1)N1CCCCC1 (stereo not drawn) [Compound 92],5.06,,,4.70,
COCCCC1CCN(C(C=C(C)C)CC(C)(C)c2ccc(F)cc2)CC1 (stereo not drawn) [Compound 139],6.03,,,4.70,
CC(C)=CC(CC(C)(C)c1ccc(Cl)cc1)N1CCC(N2CCOCC2)CC1 (stereo not drawn) [Compound 138],5.07,,,6.35,
CC(C)=CC(CC(C)(C)c1ccc(C(F)(F)F)cc1)N1CCC(N2CCCC2)CC1 (stereo not drawn) [Compound 130],5.97,,,6.52,
CC(C)=CC(CC(C)(C)c1ccc(F)cc1)N1CCC(Oc2ccccc2)CC1 (stereo not drawn) [Compound 124],6.45,,,6.70,
CC(C)=CC(CC(C)(C)c1ccc(C(F)(F)F)cc1)N1CCC(F)CC1 (stereo not drawn) [Compound 141],5.74,,,5.80,
CC(C)=CC(CC(C)(C)c1ccc(F)cc1)N1CCC(F)CC1 (stereo not drawn) [Compound 134],5.01,,,4.70,
CC(C)=CC(CC(C)(C)c1ccc(N2CCOCC2)cc1)N1CCC(O)CC1 (stereo not drawn) [Compound 150],3.86,,,4.70,
CC(C)=CC(CC(C)(C)c1ccc(F)cc1)N1CCC(N2CCCCC2)CC1 (stereo not drawn) [Compound 133],5.68,,,5.66,

# Further lines, with some results ahead:
log P (log P),logP (log P; octanol/water),SMILES,pIC50 (potassium channel hERG),pEC50 [1],"pEC50 ([1]; Rattus norvegicus, Hippocampal neuron)"
4.87,,CC(C)=CC(CC(C)(C)c1ccc(OC(C)C)cc1)N1CCC(C)(O)CC1 (stereo not drawn) [Compound 180],4.70,,
6,,COCCOCCC1CCN(C(C=C(C)C)CC(C)(C)c2ccc(Cl)cc2)CC1 (stereo not drawn) [Compound 162],,4.82,
5.01,,COc1cc(CCC(C)(C)N2Cc3cccc(C(=O)N4CCN(C(=O)Oc5ccccc5)CC4)c3C2)ccc1O [Compound 256],,4.82,
4,,CC(C)=CC(COc1ccc(Cl)cc1)N1CCC(CCO)CC1 (stereo not drawn) [Compound 188],6.40,,
5.04,,CC(C)=C[C@@H](CC(C)(C)c1ccc(Cl)cc1)N1CCC[C@@H]1CO [Compound 239],5.34,,
6.49,,COCCCC1CCN([C@@H](C=C(C)C)CC(C)(C)c2ccc(Cl)cc2)CC1 [Compound 292],,5.80,
4.1,,CC(C)=CC(CC(C)(C)c1ccc(C(F)(F)F)cc1)N1CCN(S(C)(=O)=O)CC1 (stereo not drawn) [Compound 161],,6.57,
4.57,,CC(C)=C[C@H](CC(C)(C)c1ccc(F)cc1)N1CCC[C@@H]1CO [Compound 242],4.85,,
6.36,,CC(C)=CC(CC(C)(C)c1ccc(F)cc1)N1CCC(CCOC(C)C)CC1 (stereo not drawn) [Compound 159],,5.00,
5.54,,COCCOCCC1CCN(C(C=C(C)C)CC(C)(C)c2ccc(F)cc2)CC1 (stereo not drawn) [Compound 163],,4.82,
4.95,,COC[C@H]1CCCN1[C@@H](C)CC(C)(C)c1ccc(C(F)(F)F)cc1 [Compound 254],5.30,,
,6.58,CC(C)=C[C@@H](CC(C)(C)c1ccc(C(F)(F)F)cc1)N1CCC(C2CCOCC2)CC1 [Example 262],,,5.73
5.99,,CC(C)=CC(CC(C)(C)c1ccc(Cl)cc1)N1CCC(OC(C)C)CC1 (stereo not drawn) [Compound 158],,5.54,
6.58,,CC(C)=C[C@H](CC(C)(C)c1ccc(C(F)(F)F)cc1)N1CCC(C2CCOCC2)CC1 [Compound 261],,6.14,
6.62,,CC(C)=CC(CC(C)(C)c1ccc(Cl)cc1)N1CCC2(CC1)OCc1ccccc12 (stereo not drawn) [Compound 187],6.00,,
6.91,,CCCCC1(OC(=O)NC(C)C)CCN(C(C=C(C)C)CC(C)(C)c2ccc(F)cc2)CC1 (stereo not drawn) [Compound 226],,5.90,
6.79,,COCCCC1CCN(C(C=C(C)C)CC(C)(C)c2ccc(OC(C)(C)C)cc2)CC1 (stereo not drawn) [Compound 183],5.68,,
3.83,,CC(C)=CC(CC(C)(C)c1ccc(Cl)cc1)N1CCN(S(C)(=O)=O)CC1 (stereo not drawn) [Compound 156],,6.47,
5.73,,CC(C)=CC(CC(C)(C)c1ccc(F)cc1)N1CCN(C(=O)c2ccccc2)CC1 (stereo not drawn) [Compound 153],,6.30,
4.22,,COC1CCN(C(C)CC(C)(C)c2ccc(Cl)cc2)CC1 (stereo not drawn) [Compound 199],5.92,,
5.95,,CC(C)=CC(CC(C)(C)c1ccc(Cl)cc1)N1CCC(CCOC2CCOC2)CC1 (stereo not drawn) [Compound 181],5.74,,
6.82,,CC(C)=CC(CC(C)(C)c1ccc(Cl)cc1)N1CCC(CCOC(C)C)CC1 (stereo not drawn) [Compound 160],,4.82,
5.11,,CC(C)=CC(CC(C)(C)c1ccc(Cl)cc1)N1CCN(C(=O)C2CC2)CC1 (stereo not drawn) [Compound 152],,6.59,
